Source: patent US12398117B2, “Heteroarylamidopyridinol derivative and pharmaceutical composition comprising same as active ingredient for prevention or treatment of autoimmune disease” (INNOVO THERAPEUTICS INC., priority 2019, dated 2025)

Experiments:
[1] = tested on: adhesion of intestinal epithelial cells (HT-29) and monocytic cells (U937) induced by TNF-α; assay: Inhibition of TNF-α-induced adhesion of monocytes and intestinal epithelial cells; format: cell-based, human; settings: Homo sapiens
In short: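 HT-29 monolayers pretreated with test drug for 1 h in 1% FBS medium. BCECF-AM-loaded U937 cells added with TNF-α (10 ng/mL) for 3 h at 37 °C; non-adherent cells washed off, remainder lysed in 0.1% Triton X-100 and adherence quantified by fluorescence.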

[2] = tested on: DSS-induced acute enteritis mouse model; assay: Oral efficacy in DSS-induced acute enteritis mouse model; format: in vivo, C57BL/6 mice; settings: for Body weight recovery rate (%) / Intestinal weight recovery rate (%): acute enteritis (DSS), mouse
Description: C57BL/6 mice aged 7-8 weeks were purchased from OrientBio (Korea), stabilized with general solid feed for 7 days, and then used in this experiment. Feed and water were freely supplied during the experiment period, and the temperature of the breeding room was maintained at 25±1° C. and the relative humidity at 50±10%. Lighting management was controlled in a 12-hour light-dark cycle by an automatic lighting controller.
Enteritis was induced in mice by allowing them to freely ingest drinking water containing 2% DSS salt (M.W. 36,000˜50,000, MP Biomedicals, LLC, OH, USA). For the chronic enteritis model, DSS was administered using a schedule of DSS administration for the first 7 days, administration of normal drinking water for 14 days, repeated administration of DSS for 7 days from the 21st day, and administration of normal drinking water for 7 days. The drug was administered once a day, 6 days a week from the first day of DSS treatment (FIG. 2A). […] In order to measure the dose-dependent therapeutic effect of the drug in the acute enteritis model, DSS was administered for 5 days to induce enteritis, and then the drug was administered for 14 days to measure the degree of recovery and treatment of enteritis (FIG. 3A). The drug was administered orally once daily for […] at a fixed time.
Changes in body weight of each mouse were observed during the DSS and drug administration using a digital mass meter.
The colon of the mouse was extracted, and the length and weight from the anus to the cecum were measured.
The degree of neutrophil infiltration in the tissue was measured by the amount of MPO, a neutrophil marker enzyme. The colon tissue with a size of 1 cm was washed with cold PBS and weighed, to which a lysis buffer (pH7.4, 200 mM NaCl, 5 mM EDTA, 10 mM tris, 10% glycerin, 1 mM PMSF, 1 μg/mL leupeptin and 28 μg/mL aprotinin) was added (500 μL of per 10 mg of tissue weight), and then homogenized using Bead Blaster® D2400 homogenizer (Benchmark Scientific, NJ, USA). […] (HK210, Hycult Biotechnology, Netherlands). The supernatant was added to a 96 well plate (100 μL/well) coated with an anti-mouse MPO antibody, and incubated for 1 hour at room temperature, followed by washing 3 times with a washing buffer. A reconstituted tracer was added to the plate (100 μL/well), which was reacted at room temperature for 1 hour, washed 3 times, and then 100 μL of streptavidin-peroxidase conjugate was added to each well of the plate. The plate was reacted at room temperature for 1 hour, washed, and 100 μl of TMB substrate solution was added to each well of the plate, followed by reaction for 30 minutes. The reaction was terminated by adding 100 μL of a stop solution to each well of the plate, and absorbance was measured at 450 nm. MPO activity means the amount of 1 μM […] at 25° C. for 1 minute. This was calculated as the amount of MPO contained in 1 mL of the colon tissue homogenate.
Tissue staining was performed in the same manner as in the case of hematoxylin/eosin staining of the rat colon tissue, and scoring indexes of mucosal damage and recovery were applied in the same way.

Cc1ccc2[nH]c(C(=O)Nc3nc(C)c(O)c(C)c3C)cc2c1 [Compound X-09, N-(5-hydroxy-3,4,6-trimethylpyridin-2-yl)-5-methyl-1H-indole-2-carboxamide]
inhibition at 1 µM ([1]; test drug 1 μM, TNF-α 10 ng/mL, HT-29/U937, read-out: Inhibitory activity (%)): 82.8% | IC50 ([1]; inhibition of adhesion by TNF-α): 300 nM | Morphological observation of colon, therapeutic effect versus tofacitinib ([2]; DSS acute mouse, 10 mg/kg, FIG. 3C): significantly superior to that of the control group treated with 30 mg/kg of tofacitinib | Morphological observation of colon ([2]; DSS acute mouse, X-09 dose range, FIG. 3C): dose-dependent therapeutic efficacy | level of MPO in colon tissue ([2]; DSS acute mouse, X-09 dose range, FIG. 3E): decreased by compound X-09 dose-dependently | Mucosal damage recovery of mouse colon (hematoxylin-eosin score) ([2]; DSS mouse, X-09 dose range, FIG. 4): dose-dependent mucosal damage recovery effect | Body weight recovery rate (%) ([2]; 0.3 mg/kg): 56.5% | Intestinal weight recovery rate (%) ([2]; 0.3 mg/kg): 48.4% | Body weight recovery rate (%) ([2]; 1 mg/kg): 72.0% | Intestinal weight recovery rate (%) ([2]; 1 mg/kg): 76.7% | Body weight recovery rate (%) ([2]; 3 mg/kg): 80.7% | Intestinal weight recovery rate (%) ([2]; 3 mg/kg): 89.0% | Body weight recovery rate (%) ([2]; 10 mg/kg): 88.1% | Intestinal weight recovery rate (%) ([2]; 10 mg/kg): 96.4%
